{
  "source": "PubChem BioAssay AID1918941",
  "about": "(Molecular Pharmacology Branch, DTP, NCI, 2023)",
  "tested_on": "SW 1271 complex spheroids, viability",
  "test": "Anticancer human tumor SW 1271 cell line growth inhibition [LSD1];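 also: spheroids exposed to agents for 7 days before luminescence read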;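 as to viability, T/C: 100% = DMSO vehicle control viability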",
  "conditions": "for pIC50: curve of first compound; for viability, T/C: stronger effect = lower value",
  "in_short": "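Drug combinations with the LSD1 inhibitor iadademstat tested on tumor cells co-cultured as spheroids with endothelial cells and mesenchymal stem cells. Concentrations descended in half-log increments from clinical Cmax or 10 microM.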",
  "note": "pIC50: −log10 of the molar value.",
  "data": [
    {"smiles": "COc1cc(Nc2ncc3c(n2)-c2ccc(Cl)cc2C(c2c(F)cccc2OC)=NC3)ccc1C(=O)O", "note": "+ NC1CC1c1ccc(-c2cccc(O)c2)cc1", "values": [
      {"measurement": "pIC50", "setting": "second compound 0.1 µM", "value": 7.10},
      {"measurement": "pIC50", "setting": "second compound 0.316 µM", "value": 7.16},
      {"measurement": "pIC50", "setting": "second compound 1 µM", "value": 6.94},
      {"measurement": "pIC50", "setting": "second compound 3.16 µM", "value": 7.10},
      {"measurement": "pIC50", "setting": "second compound 10 µM", "value": 7.19},
      {"measurement": "viability, T/C", "setting": "second compound 0.1 µM, first compound 0.00316 µM", "value": 75.8, "unit": "%"},
      {"measurement": "viability, T/C", "setting": "second compound 0.1 µM, first compound 0.01 µM", "value": 69.2, "unit": "%"},
      {"measurement": "viability, T/C", "setting": "second compound 0.1 µM, first compound 0.0316 µM", "value": 67.3, "unit": "%"},
      {"measurement": "viability, T/C", "setting": "second compound 0.1 µM, first compound 0.1 µM", "value": 43.5, "unit": "%"},
      {"measurement": "viability, T/C", "setting": "second compound 0.1 µM, first compound 0.316 µM", "value": 29, "unit": "%"},
      {"measurement": "viability, T/C", "setting": "second compound 0.1 µM, first compound 1 µM", "value": 13.3, "unit": "%"},
      {"measurement": "viability, T/C", "setting": "second compound 0.316 µM, first compound 0.00316 µM", "value": 62.6, "unit": "%"},
      {"measurement": "viability, T/C", "setting": "second compound 0.316 µM, first compound 0.01 µM", "value": 69.7, "unit": "%"},
      {"measurement": "viability, T/C", "setting": "second compound 0.316 µM, first compound 0.0316 µM", "value": 58.2, "unit": "%"},
      {"measurement": "viability, T/C", "setting": "second compound 0.316 µM, first compound 0.1 µM", "value": 43, "unit": "%"},
      {"measurement": "viability, T/C", "setting": "second compound 0.316 µM, first compound 0.316 µM", "value": 31.4, "unit": "%"},
      {"measurement": "viability, T/C", "setting": "second compound 0.316 µM, first compound 1 µM", "value": 13.1, "unit": "%"},
      {"measurement": "viability, T/C", "setting": "second compound 1 µM, first compound 0.00316 µM", "value": 68.4, "unit": "%"},
      {"measurement": "viability, T/C", "setting": "second compound 1 µM, first compound 0.01 µM", "value": 67.3, "unit": "%"},
      {"measurement": "viability, T/C", "setting": "second compound 1 µM, first compound 0.0316 µM", "value": 73.6, "unit": "%"},
      {"measurement": "viability, T/C", "setting": "second compound 1 µM, first compound 0.1 µM", "value": 48.1, "unit": "%"},
      {"measurement": "viability, T/C", "setting": "second compound 1 µM, first compound 0.316 µM", "value": 31, "unit": "%"},
      {"measurement": "viability, T/C", "setting": "second compound 1 µM, first compound 1 µM", "value": 11.6, "unit": "%"},
      {"measurement": "viability, T/C", "setting": "second compound 3.16 µM, first compound 0.00316 µM", "value": 60.1, "unit": "%"},
      {"measurement": "viability, T/C", "setting": "second compound 3.16 µM, first compound 0.01 µM", "value": 55.7, "unit": "%"},
      {"measurement": "viability, T/C", "setting": "second compound 3.16 µM, first compound 0.0316 µM", "value": 67.7, "unit": "%"},
      {"measurement": "viability, T/C", "setting": "second compound 3.16 µM, first compound 0.1 µM", "value": 43.4, "unit": "%"},
      {"measurement": "viability, T/C", "setting": "second compound 3.16 µM, first compound 0.316 µM", "value": 28.6, "unit": "%"},
      {"measurement": "viability, T/C", "setting": "second compound 3.16 µM, first compound 1 µM", "value": 13.7, "unit": "%"},
      {"measurement": "viability, T/C", "setting": "second compound 10 µM, first compound 0.00316 µM", "value": 65.6, "unit": "%"},
      {"measurement": "viability, T/C", "setting": "second compound 10 µM, first compound 0.01 µM", "value": 59.1, "unit": "%"},
      {"measurement": "viability, T/C", "setting": "second compound 10 µM, first compound 0.0316 µM", "value": 61.2, "unit": "%"},
      {"measurement": "viability, T/C", "setting": "second compound 10 µM, first compound 0.1 µM", "value": 43, "unit": "%"},
      {"measurement": "viability, T/C", "setting": "second compound 10 µM, first compound 0.316 µM", "value": 29.6, "unit": "%"},
      {"measurement": "viability, T/C", "setting": "second compound 10 µM, first compound 1 µM", "value": 17.2, "unit": "%"}
    ]},
    {"smiles": "O=C(C=Cc1cccc(S(=O)(=O)Nc2ccccc2)c1)NO", "note": "+ NC1CC1c1ccc(-c2cccc(O)c2)cc1", "values": [
      {"measurement": "pIC50", "setting": "second compound 0.1 µM", "value": 7.01},
      {"measurement": "pIC50", "setting": "second compound 0.316 µM", "value": 7.20},
      {"measurement": "pIC50", "setting": "second compound 1 µM", "value": 7.26},
      {"measurement": "pIC50", "setting": "second compound 3.16 µM", "value": 7.22},
      {"measurement": "pIC50", "setting": "second compound 10 µM", "value": 7.17},
      {"measurement": "viability, T/C", "setting": "second compound 0.1 µM, first compound 0.00949 µM", "value": 74.5, "unit": "%"},
      {"measurement": "viability, T/C", "setting": "second compound 0.1 µM, first compound 0.03 µM", "value": 69, "unit": "%"},
      {"measurement": "viability, T/C", "setting": "second compound 0.1 µM, first compound 0.0949 µM", "value": 51.8, "unit": "%"},
      {"measurement": "viability, T/C", "setting": "second compound 0.1 µM, first compound 0.3 µM", "value": 17.9, "unit": "%"},
      {"measurement": "viability, T/C", "setting": "second compound 0.1 µM, first compound 0.949 µM", "value": 7.5, "unit": "%"},
      {"measurement": "viability, T/C", "setting": "second compound 0.1 µM, first compound 3 µM", "value": 0.27, "unit": "%"},
      {"measurement": "viability, T/C", "setting": "second compound 0.316 µM, first compound 0.00949 µM", "value": 70.3, "unit": "%"},
      {"measurement": "viability, T/C", "setting": "second compound 0.316 µM, first compound 0.03 µM", "value": 61.8, "unit": "%"},
      {"measurement": "viability, T/C", "setting": "second compound 0.316 µM, first compound 0.0949 µM", "value": 44, "unit": "%"},
      {"measurement": "viability, T/C", "setting": "second compound 0.316 µM, first compound 0.3 µM", "value": 17.4, "unit": "%"},
      {"measurement": "viability, T/C", "setting": "second compound 0.316 µM, first compound 0.949 µM", "value": 6.95, "unit": "%"},
      {"measurement": "viability, T/C", "setting": "second compound 0.316 µM, first compound 3 µM", "value": 0.16, "unit": "%"},
      {"measurement": "viability, T/C", "setting": "second compound 1 µM, first compound 0.00949 µM", "value": 75.7, "unit": "%"},
      {"measurement": "viability, T/C", "setting": "second compound 1 µM, first compound 0.03 µM", "value": 60.1, "unit": "%"},
      {"measurement": "viability, T/C", "setting": "second compound 1 µM, first compound 0.0949 µM", "value": 41.8, "unit": "%"},
      {"measurement": "viability, T/C", "setting": "second compound 1 µM, first compound 0.3 µM", "value": 14.3, "unit": "%"},
      {"measurement": "viability, T/C", "setting": "second compound 1 µM, first compound 0.949 µM", "value": 6.33, "unit": "%"},
      {"measurement": "viability, T/C", "setting": "second compound 1 µM, first compound 3 µM", "value": 0.7, "unit": "%"},
      {"measurement": "viability, T/C", "setting": "second compound 3.16 µM, first compound 0.00949 µM", "value": 72.7, "unit": "%"},
      {"measurement": "viability, T/C", "setting": "second compound 3.16 µM, first compound 0.03 µM", "value": 58.4, "unit": "%"},
      {"measurement": "viability, T/C", "setting": "second compound 3.16 µM, first compound 0.0949 µM", "value": 45.6, "unit": "%"},
      {"measurement": "viability, T/C", "setting": "second compound 3.16 µM, first compound 0.3 µM", "value": 14.1, "unit": "%"},
      {"measurement": "viability, T/C", "setting": "second compound 3.16 µM, first compound 0.949 µM", "value": 6.89, "unit": "%"},
      {"measurement": "viability, T/C", "setting": "second compound 3.16 µM, first compound 3 µM", "value": 0.2, "unit": "%"},
      {"measurement": "viability, T/C", "setting": "second compound 10 µM, first compound 0.00949 µM", "value": 67.1, "unit": "%"},
      {"measurement": "viability, T/C", "setting": "second compound 10 µM, first compound 0.03 µM", "value": 59.9, "unit": "%"},
      {"measurement": "viability, T/C", "setting": "second compound 10 µM, first compound 0.0949 µM", "value": 46.5, "unit": "%"},
      {"measurement": "viability, T/C", "setting": "second compound 10 µM, first compound 0.3 µM", "value": 17.6, "unit": "%"},
      {"measurement": "viability, T/C", "setting": "second compound 10 µM, first compound 0.949 µM", "value": 5.74, "unit": "%"},
      {"measurement": "viability, T/C", "setting": "second compound 10 µM, first compound 3 µM", "value": 0.36, "unit": "%"}
    ]}
  ]
}
